This is an account of results in patent US6277867A, “Pesticide compounds, compositions and process for the preparation thereof” (priority 1995, dated 2001).

Series [1] concerns pea aphid (Acyrthosiphon pisun). Kind of series: Synergist activity against pea aphid, field trial. The format is in vivo. Conditions: dose 120 act. ingr./ha; two days after treatment. On the procedure: Synergist Activity Against Pea Aphid (Acyrthosiphon pisun)
Synergist activity of compound No. 599 was tested against pea aphid (Acyrthosiphon pisun) in field trials on small plots (10 m^2). 300 l/ha spray volume was applied using motoric sprayer (Maruyama). Efficacy was expressed by the average number of aphids/leaf before, and two days after the treatment, respectively. (Henderson and Tilton: J. Econ. Entomol., 48:157, 1955).

For series [2], the system named is two-spotted spider mite (Tetranychus urticae). Kind of series: Synergism of acaricidal effect on two-spotted spider mite (leaf-disc dip). The format is in vivo. The settings on record: alone, 48 hours, read-out: Mortality %. As for the experimental part: Synergism of Acaricidal Effect Investigated on Two-spotted Spider Mite (Tetranychus urticae)
From the first pair of leaves of a 1 week old bean plant leaf-discs of […] diameter were cut which were treated by dipping them (5 min) into the test solution consisting of the active ingredient and the synergist in definite concentrations. For the preparation of the stock solutions of required concentration, 10% acetone as co-solvent and 0.1% Tween-80 as detergent were applied. The dried leaf-discs were placed on wet surface and they were infected with […]-up female mites per leaf. After 48 hours the mortality was recorded using microscope and a brush. The experiment was performed in 4 replica.

In series [3] the test system is cotton bollworm (Helicoverpa armigera). Briefly: Synergist spectrum on cotton bollworm, topical. The format is in vivo. On the procedure:
(§1) Investigation of Synergist Spectrum on House Fly (Musca domestica) and Cotton Bollworm (Helicoverpa armigera) Following Topical Administration
(§2) Synerzistic activities of materials No. 279 and 599 of the present invention for various active ingredients were determined on house fly (Musca domestica) and cotton bollworm (Helicoverpa armigera) using methods of treatments as described in biological Examples 1 and 2. For the active ingredients ISO common names are given (see: Pesticide Manual 1994).

The subject of series [4] is house fly (Musca domestica). The settings on record: in vivo, topical_or_ocular, 1440 min. As for the experimental part: Investigation of Synergistic Activity on House Fly (Musca domestica) Following Topical Application
In two parallel experiments 10 female. 2-4 day old house flies were treated on the vental side of their thorax with 0.2 μl of the test solution, with the help of Hamilton MicroLab P microdispenser. Beside fixed synergist dose of 1000 ng/fly the animals were treated with carbofuran at a dose of 20 ng/fly. For solvent cellosolve was used. Selection and counting of the flies were performed under the action of CO2. After treatment the flies were kept in plastic cups covered with tulle. Mortality after 24 hours was expressed in %.

The next series deals with flies. Briefly: Comparative investigations with known reference synergists on flies treated with carbofuran. The format is in vivo. Conditions: flies treated with carbofuran and 1000 ng of the synergist. The text has this: These SR50 ratios were compared to those of the new compounds prepared by us.
Series [5] concerns house fly (Musca domestica). Kind of series: Synergist spectrum on house fly, topical. The format is in vivo. On the procedure:
as §1, §2

Series [6] deals with resistant house fly, INSEL strain. Briefly: Synergistic activity on resistant house fly, INSEL strain. It counts as in vivo, Musca domestica. As for the experimental part: (§3) Investigation of Synergistic Activity on Resistant House Fly (Musca domestica) Populations
(§4) Investigation was carried out as described in biological Example 1. LD50 values and synergist ratios were determined as given in Example 2.

Series [7] deals with resistant house fly, IX strain. Briefly: Synergistic activity on resistant house fly, IX strain. The format is in vivo, Musca domestica. On the procedure: as §3, §4
Series [8] has as its system cotton bollworm (Helicoverpa armigera). Briefly: Synergistic activity on cotton bollworm following topical application. Conditions: in vivo. On the procedure:
Investigation of Synergistic Activity on Cotton Bollworm (Helicoverpa armigera) Following Topical Application
Treatment was performed similarity as described in Example 1. but L2 stadium grubs of cotton bollworms (Helicoverpa armigera) were treated as test animals. From the 24 hour dose--mortality data the LD50 (ng/grub) values were determined using probit analysis. None of the synergists acted at the applied 1000 ng/grub dose. Synergist ratio was calculated as the quotient of the LD50 values of carbofuran administered alone, and with the synergist. The experiments were performed in 2-4 replica.

The subject of series [9] is house fly (Musca domestica). Kind of series: Effect of the active ingredient:synergist ratio on the synergistic activity (flies). On the procedure:
Effect of the Active Ingredient:Synergist Ratio on the Synergistic Activity
Treatment was performed as described in Example 1. using Hamilton MicroLab P microdispenser. In two parallel experiments 10 female -3 day old flies were treated on the ventral side of their thorax with 0.2 μl test solution. Beside 1000-400-200-80 ng/fly fixed doses of the synergist they were treated with constant 20 ng/fly CARBOFURAN®. Selection and counting of the flies were performed under the action of CO2. After treatment the flies were kept in plastic cups covered with tulle. After 24 hours mortality % was recorded. Depending on the results the experiments were performed in 2-4 replica.

Setting [10] is: carbofuran 20 ng/fly + synergist 80 ng/fly.
Where [11] appears, read: carbofuran 20 ng/fly + synergist 200 ng/fly.
Setting [12] is: carbofuran 20 ng/fly + synergist 400 ng/fly.
[13] abbreviates: house fly, in vivo, topical_or_ocular.

Take `O=[N+]([O-])NC1=NCCN1Cc1ccc(Cl)nc1` [IMIDACLOPRID]: the “E (%)” value in [1] is 98.4%.

Broadly, the mortality is the percentage killed. With `CC(C)OC(=O)C(O)(c1ccc(Br)cc1)c1ccc(Br)cc1` [BROMOROPYLATE], in series [2], the mortality at 31 ppm worked out at 18%, the mortality at 62 ppm turned out to be 28% and the mortality at 125 ppm turned out to be 90%.

Take `CC#CCOCc1cccc2ccccc12` [Compound 279, 1-naphthyl-methyl 2-butynyl ether]: the mortality at 31 ppm in series [2] stood at 0%. Also, the mortality at 62 ppm in series [2] stood at 6%. Further, the mortality at 125 ppm in series [2] turned out to be 8%. Besides, in series [2] (250 ppm), the mortality at 250 ppm turned out to be 18%. For the same molecule, the mortality at 500 ppm in series [2] (500 ppm) is 30%. The Synergist ratio in series [3] (with AZINPHOSMETHYL) is given as above 5; in series [3] (with BENDIOCARB), above 10; in [3] (with CARBOFURAN), above 10; in [3] (with CHLORPYRIPHOS), above 5; in series [3] (with LINDAN), above 5; in series [3] (with PROPOXUR), above 10. Also, the Synergist ratio in series [5] (with AMINOCARB) was above 20; in series [5] (with AZINPHOSMETHYL), above 5; in [5] (with BENDIOCARB), above 20; in series [5] (with CARBOFURAN), above 20; in series [5] (with CHLORPYRIPHOS) it was above 5; in series [5] (with DIOXACARB) it was above 20. Also, the Synergist ratio in [5] (with ESBIOL) was above 5; in series [5] (with FENOBUCARB), above 10; in [5] (with IMIDACLOPRID), above 5; in series [5] (with ISOPROCARB), above 40; in series [5] (with LINDAN) it was above 5; in series [5] (with METHOMYL), above 10. For the same molecule, the Synergist ratio in series [5] (with PIRIMICARB) is recorded as above 20; in series [5] (with PROPOXUR) it was above 20; in series [5] (with THIODICARB), above 10; in series [8] it was above 5. In [4], the mortality % came to 72%. Further, the “Synergist ratio SR50” value in the series on flies is recorded as 28.7. For the same molecule, the LD50 in [6] (ALDICARB + 279) is reported as 172 ng/fly; in [6] (BENDIOCARB + 279) it was 150 ng/fly; in [6] (CARBOFURAN + 279), 29 ng/fly; in series [6] (ESBIOL + 279), 794 ng/fly; in series [6] (ISOPROCARB + 279) it was 983 ng/fly; in series [6] (METHOMYL + 279) it was 46 ng/fly. Besides, the LD50 in series [6] (PIRIMICARB + 279) turned out to be 696 ng/fly; in [7] (ALDICARB + 279) it was 507 ng/fly; in [7] (BENDIOCARB + 279) it was 746 ng/fly; in series [7] (CARBOFURAN + 279), 94 ng/fly; in [7] (ISOPROCARB + 279), 2145 ng/fly; in series [7] (METHOMYL + 279) it was 109 ng/fly. Also, the LD50 in series [7] (PIRIMICARB + 279) is recorded as 3562 ng/fly. Besides, the SR was found to be 4 in series [6] (ALDICARB + 279); 667 in [6] (BENDIOCARB + 279); 530 in [6] (CARBOFURAN + 279); 13 in series [6] (ESBIOL + 279); 102 in series [6] (ISOPROCARB + 279); 10 in series [6] (METHOMYL + 279). Also, the SR in series [6] (PIRIMICARB + 279) worked out at 145; in series [7] (ALDICARB + 279), 4; in series [7] (BENDIOCARB + 279) it was 134; in [7] (CARBOFURAN + 279), 4760; in series [7] (ISOPROCARB + 279), 47; in [7] (METHOMYL + 279), 5. For the same molecule, the SR in series [7] (PIRIMICARB + 279) is on record as 115.

With `CC#CCOCc1ccc(OC)c(OC)c1` [Compound 493, (2-Butynyloxy-methyl)-3,4-dimethoxy-benzene], the mortality % in [4] amounted to 100%. Moreover, the “Synergist ratio SR50” value with flies was 32.84. Moreover, the “24 hour mortality (%)” value in series [9] (setting [10]) is listed as 75%; in [9] (setting [11]) it was 88%; in series [9] (setting [12]), 94%; in [9] (setting [13]), 100%. Further, in series [8], the Synergist ratio is listed as above 5.

Consider `CNC(=O)ON=C(C)SC` [METHOMYL, reference compound], for which the LD50 in [6] (active ingredient alone) was 475 ng/fly; in series [7] (active ingredient alone) it was 851 ng/fly.

With `CC#CCOCC1COc2ccccc2O1` (centres unmarked) [Compound 510, 2-[(2-Butynyloxy)-methyl]-1,4-benzodioxane], the mortality % in series [4] was 75%. In addition, in the series on flies, the “Synergist ratio SR50” value came to 18.32. Also, the Synergist ratio in series [8] is on record as above 5.

With `CNC(=O)Oc1cccc2c1OC(C)(C)O2` [BENDIOCARB, reference compound], the LD50 in series [6] (active ingredient alone) and in series [7] (active ingredient alone) was 100000 ng/fly in each case.

Regarding `CC#CCCOc1cccc2c1OC(C)(C)C2` [Compound 418, 2,3-dihydro-2,2-dimethyl-7-(3-pentynyloxy)-benzofuran], in series [4], the mortality % amounted to 63%. In the series on flies, the “Synergist ratio SR50” value is listed as 20.5. In addition, the Synergist ratio in [8] is listed as above 5.

For `CC#CCOC(C)c1ccc(OC)c(OC)c1` (centres unmarked) [Compound 599], the Synergist ratio in series [3] (with BENDIOCARB) is reported as above 20; in [3] (with CARBOFURAN), above 20; in series [3] (with DIOXACARB), above 20; in series [3] (with ISOPROCARB), above 20; in series [3] (with PERMETHRIN) it was above 10; in series [3] (with PROPOXUR) it was above 20. For the same molecule, the Synergist ratio is above 20 in [5] (with AMINOCARB); above 40 in series [5] (with BENDIOCARB); above 20 in series [5] (with CARBOFURAN); above 40 in series [5] (with DIOXACARB); above 10 in series [5] (with ESBIOL); above 20 in series [5] (with FENOBUCARB). Besides, the Synergist ratio was above 5 in [5] (with IMIDACLOPRID); above 40 in series [5] (with ISOPROCARB); above 10 in series [5] (with METHOMYL); above 5 in [5] (with PERMETHRIN); above 20 in series [5] (with PIRIMICARB); above 40 in series [5] (with PROPOXUR). Also, the figures for the Synergist ratio in [5] (with TETRAMETHRIN), in series [5] (with THIODICARB) and in series [8] were above 5, above 10 and above 5, respectively. Also, the mortality % in [4] is 100%. Besides, the “24 hour mortality (%)” value in [9] (setting [10]) stood at 65%; in series [9] (setting [11]), 90%; in [9] (setting [12]) it was 95%; in series [9] (setting [13]), 100%.

In the case of `CC#CCOC(=O)c1ccc2c(c1)OCO2` [Compound 502, 2-Butynyl 1,3-benzodioxol-5-carboxylate], the mortality % in [4] was found to be 47%. Further, the “Synergist ratio SR50” value in the series on flies turned out to be 6.28. The Synergist ratio in [8] was above 5.

With `CNC(=O)Oc1ccccc1C(C)C` [ISOPROCARB, reference compound], the LD50 in series [6] (active ingredient alone) and in series [7] (active ingredient alone) was above 100000 ng/fly in each case.

For `CNC(=O)O/N=C/C(C)(C)SC` [ALDICARB, reference compound], the LD50 in series [6] (active ingredient alone) was determined as 695 ng/fly; in series [7] (active ingredient alone) it was 2104 ng/fly.

Regarding `CC#CCOCc1c(Cl)cccc1Cl` [Compound 503, 2,6-Dichloro-1-(2-butynyloxy-methyl)-benzene], the mortality % in series [4] was 95%. The “Synergist ratio SR50” value in the series on flies stood at 21.16. The “24 hour mortality (%)” value in series [9] (setting [10]) is reported as 37%; in series [9] (setting [11]) it was 50%; in [9] (setting [12]) it was 65%; in series [9] (setting [13]) it was 93%. The Synergist ratio in series [8] is recorded as above 5.
